Results from US9932479B2, “Dyes and compositions, and processes for using same in analysis of protein aggregation and other applications” (Enzo Biochem, Inc., priority 2009, dated 2018).

Assays:
[1] = target: T1, Hen Egg White Lysozyme (Gallus gallus, UniProt P00698); experiment: Inhibition of Lysozyme aggregation at pH 12.2, S-25/Tol3 readout; type: biochemical; details: 510 μM Chitotriose, 300 μM Lysozyme, aggregation induced at pH 12.2
T1 construct: Hen egg white lysozyme was solubilized in 10 mM HCl; from tissue; host or cells: hen egg white
Procedure: Hen egg white Lysozyme (300 μM) was incubated with or without N,N′,N″-triacetyl-chitotriose (Chitotriose, 510 μM) in 10 mM potassium phosphate, pH 7.3 for 16 hours. Aggregation was induced by 3.5 fold dilution into 50 mM potassium phosphate, pH 12.2. Aggregation was followed by removing an aliquot of the protein and diluting such that the final composition was 20 μM protein, 50 mM potassium phosphate, pH 7, 3 μM S-25 and 3 μM Tol3. Protein was incubated with dye for 15 minutes prior to determining the fluorescence using a BioTek Synergy Mx plate scanner, with excitation setting at 515 nm and emission setting at 603 nm, both with a 9 nm slit-width. The zero time point was taken before dilution to pH 12.2. Readings were taken in at least triplicate in a Greiner μClear black, clear bottom 96-well microplate. Aggregation was followed for several weeks at room temperature (19°-23° C.).

[2] = Fluorescence excitation and emission spectra of dye freely dissolved in buffer; type: physicochemical; details: 50 mM Tris-HCl, pH 7.8, 10 μM dye, room temperature
Procedure: (§1) Fluorescent readings were carried out in 50 mM Tris-HCl, pH 7.8 using 10 μM dye. […] Fluorescence excitation and emission spectra were collected on a Cary Eclipse fluorescence spectrophotometer (Varian, Australia). Fluorescence spectra were measured with excitation and emission slit widths set to 5 nm, and at a constant PMT voltage. Spectroscopic measurements were performed in standard quartz cells. All measurements were made at the respective excitation maxima of each dye. All measurements were carried out at room temperature.

[3] = target: T2, recombinant human alpha-synuclein (ASN) aggregate (Homo sapiens, UniProt P37840); experiment: Fluorescence excitation and emission spectra of dye in the presence of aggregated alpha-synuclein; type: binding; details: 1 μM aggregated ASN, 50 mM Tris-HCl, pH 7.8, 10 μM dye
T2 construct: purchased Sigma-Aldrich
Procedure: as §1

[4] = system: goat-anti-mouse IgG aggregate; experiment: Fluorescence enhancement (aggregate/native IgG) in the presence of excipients; type: binding; details: for Fluorescence enhancement (aggregate/native IgG): 2.8 μM IgG, 0.625 μM dye; for Fluorescence enhancement (aggregate/native IgG), Average: Average over all excipient conditions
Procedure: IgG aggregate was prepared by adjusting 5.83 mg/ml of purified goat-anti-mouse IgG (H&L, Pel Freez, Rogers, Ark.) to pH 2.7 using HCl and incubating at 22° C. for 24 hours. The assay was performed using 2.8 μM IgG, either native or aggregated, and a dye concentration of 0.625 μM. The protein and dye were mixed together for 15 minutes at 22° C., then this was further incubated in the presence of the excipients shown in the table. The fluorescence intensity of S-25, Tol3 and Y2150 were determined with a FLUOstar OPTIMA plate reader (BMG LABTECH) at excitation wavelength of 550 nm and emission wavelength of 610 nm; while the fluorescence intensity for Thioflavin-T was determined using a SpectraMAX GeminiXS (Molecular device, with Softmax Pro 7.0) using an excitation wavelength of 435 nm and emission wavelength of 495 nm. The fluorescence enhancement (aggregate/native IgG) is shown.

[5] = target: T3, β-lactoglobulin (BLG) (Bos taurus, UniProt P02754); experiment: Thermal shift assay of BLG aggregation; type: binding; details: BLG 4 or 16 mg/mL, heating 28° C. to 90° C.
T3 sequence (P02754 17-178): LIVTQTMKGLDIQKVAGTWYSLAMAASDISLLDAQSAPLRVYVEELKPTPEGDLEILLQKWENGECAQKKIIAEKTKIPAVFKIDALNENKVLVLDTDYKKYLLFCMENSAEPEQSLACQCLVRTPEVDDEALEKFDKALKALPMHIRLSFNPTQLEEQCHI
Procedure: A solution containing 4 or 16 mg/mL of β-lactoglobulin (BLG) and 2×SYPRO® Orange dye (Molecular Probes, supplied as 5000× with unknown concentration) or 4 μM TOL3 or 4 μM S25 was prepared using 1×PBS, pH 7.4 as the dilution buffer. This solution was then loaded into LightCycler® capillaries (20 μL, Roche Diagnostics GmbH). These capillaries were then mounted on the sample holder of a LightCycler® 480 Real-Time PCR System (Roche), programmed to heat from 28° C. to 90° C. at 3° C./min, followed by cooling down to 28° C. at the same rate. The thermal shift curves were achieved by plotting fluorescence intensity vs. temperature. After the heating cycle, protein aggregates were visually apparent.

[6] = system: Rabbit-anti-goat IgG; experiment: Fluorescence response to unfolded versus aggregated IgG in 4.55 M urea; type: binding; details: 6.67 μM Tol3
Procedure: (B) A solution containing aggregated IgG (formed as in Example 13 (B)) or monomeric IgG at 0.033 mg/mL, 4.55 M urea and 6.67 μM Tol3 was prepared and transferred into a microplate. After incubating at 4° C. degree for about 10 minutes, the fluorescence was recorded. Two control solutions without IgG, but with the same concentration of TOl3, were included, one including 4.55M urea, another without urea. From the previous chemical shift curve generated (seen in FIG. 16 (A)), 4.55 M urea is known to unfold approximately 60% of the IgG.

[7] = system: Rabbit-anti-goat IgG; experiment: Chemical shift assay based on internal tryptophan fluorescence; type: biochemical; details: 4.55 M urea; from chemical shift curve FIG. 16 (A)
Procedure: (A) Chemical shift assay based on internal tryptophan fluorescence: Rabbit-anti-goat IgG (Pel Freeze) in 1×PBS buffer of pH 7.4 was mixed with urea in 1×PBS to achieve a final IgG concentration of 0.25 mg/mL. After mixing on ice for 10 minutes, the fluorescence emission intensity at 330 nm was recorded by exciting at 280 nm using a MD-5020 fluorimeter (Phototechnology International). A chemical shift curve was plotted based on internal tryptophan fluorescence intensity at each given urea concentration. Urea denatures proteins but prevents them from aggregating.

T1 sequence (P00698 19-147): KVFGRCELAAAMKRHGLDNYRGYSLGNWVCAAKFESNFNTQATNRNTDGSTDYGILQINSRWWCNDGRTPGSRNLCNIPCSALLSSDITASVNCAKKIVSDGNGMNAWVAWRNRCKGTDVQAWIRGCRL

Compound	Dye freely dissolved in buffer: Emission wavelength [2] [nm]	Dye freely dissolved in buffer: Excitation wavelength [2] [nm]	In the presence of aggregate: Emission wavelength [3] [nm]	In the presence of aggregate: Excitation wavelength [3] [nm]	Fluorescence enhancement (aggregate/native IgG) ([4]; Ammonium Sulfate, 10 mM) [fold]	Fluorescence enhancement (aggregate/native IgG) ([4]; Ammonium Sulfate, 100 mM) [fold]	Fluorescence enhancement (aggregate/native IgG) ([4]; Ammonium Sulfate, 300 mM) [fold]	Fluorescence enhancement (aggregate/native IgG) ([4]; Arginine, 200 mM) [fold]	Fluorescence enhancement (aggregate/native IgG) ([4]; Arginine, 500 mM) [fold]	Fluorescence enhancement (aggregate/native IgG) ([4]; Ascoric Acid, 1 mM) [fold]	Fluorescence enhancement (aggregate/native IgG), Average [4] [fold]	Fluorescence enhancement (aggregate/native IgG) ([4]; Calcium Chloride, 10 mM) [fold]	Fluorescence enhancement (aggregate/native IgG) ([4]; Calcium Chloride, 50 mM) [fold]	Fluorescence enhancement (aggregate/native IgG) ([4]; Calcium Chloride, 200 mM) [fold]	Fluorescence enhancement (aggregate/native IgG) ([4]; DTT, 1 mM) [fold]	Fluorescence enhancement (aggregate/native IgG) ([4]; Glycine, 0.5%) [fold]	Fluorescence enhancement (aggregate/native IgG) ([4]; Glycine, 2%) [fold]	Fluorescence enhancement (aggregate/native IgG) ([4]; Lactose, 100 mM) [fold]	Fluorescence enhancement (aggregate/native IgG) ([4]; Lactose, 300 mM) [fold]	Fluorescence enhancement (aggregate/native IgG) ([4]; Mannitol, 100 mM) [fold]	further results
CC(=O)N[C@H]1[C@H](O[C@H]2[C@H](O)[C@@H](NC(C)=O)C(O)O[C@@H]2CO)O[C@H](CO)[C@@H](O[C@@H]2O[C@H](CO)[C@@H](O)[C@H](O)[C@H]2NC(C)=O)[C@@H]1O (stereo partly drawn) [Chitotriose, N,N′,N″-triacetyl-chitotriose]	–	–	–	–	–	–	–	–	–	–	–	–	–	–	–	–	–	–	–	–	Effect on Lysozyme aggregation [1]: inhibits Lysozyme aggregation
CN(C)c1ccc(/C=C/c2cc[n+](CCCCCC[n+]3ccc(/C=C/c4ccc(N(C)C)cc4)cc3)cc2)cc1.CS(=O)(=O)[O-].CS(=O)(=O)[O-] [Dye S25]	613	485	607	516	15.4	14.6	13.3	14.8	13.5	13.9	19.3	9.7	9.6	6.7	13.2	14.1	15.1	23.0	38.9	16.7	Fluorescence enhancement (aggregate/native IgG) ([4]; Mannitol, 300 mM): 15.2 fold; Fluorescence enhancement (aggregate/native IgG) ([4]; Mannitol, 600 mM): 20.9 fold; Fluorescence enhancement (aggregate/native IgG) ([4]; Sodium Chloride, 10 mM): 14.0 fold; Fluorescence enhancement (aggregate/native IgG) ([4]; Sodium Chloride, 100 mM): 13.6 fold; Fluorescence enhancement (aggregate/native IgG) ([4]; Sodium Chloride, 1000 mM): 11.7 fold; Fluorescence enhancement (aggregate/native IgG) ([4]; Sorbitol, 100 mM): 16.4 fold; Fluorescence enhancement (aggregate/native IgG) ([4]; Sorbitol, 300 mM): 21.0 fold; Fluorescence enhancement (aggregate/native IgG) ([4]; Sorbitol, 600 mM): 25.4 fold; Fluorescence enhancement (aggregate/native IgG) ([4]; Trehalose, 100 mM): 17.8 fold; Fluorescence enhancement (aggregate/native IgG) ([4]; Trehalose, 300 mM): 32.1 fold; Fluorescence enhancement (aggregate/native IgG) ([4]; Trehalose, 600 mM): 30.1 fold; Fluorescence enhancement (aggregate/native IgG) ([4]; Tween 20, 0.01%): 70.8 fold; Fluorescence enhancement (aggregate/native IgG) ([4]; Tween 20, 0.2%): 26.7 fold; Fluorescence enhancement (aggregate/native IgG) ([4]; X100, 0.01%): 19.2 fold; Fluorescence enhancement (aggregate/native IgG) ([4]; X100, 0.2%): 7.3 fold; Fluorescence enhancement (aggregate/native IgG) ([4]; X100, 1%): 2.9 fold; Detection of BLG thermal shift (melting) peak [5]: able to detect BLG thermal shift peaks
Cc1c[n+](CCCCCCCCCC[n+]2ccc(/C=C/c3ccc(N(C)C)cc3)c(C)c2)ccc1/C=C/c1ccc(N(C)C)cc1 [TOL3]	611	471	603	511	15.6	13.4	16.9	18.6	17.6	15.4	17.6	14.9	13.9	14.8	13.8	16.3	15.5	19.9	34.6	17.5	Fluorescence enhancement (aggregate/native IgG) ([4]; Mannitol, 300 mM): 25.2 fold; Fluorescence enhancement (aggregate/native IgG) ([4]; Mannitol, 600 mM): 27.5 fold; Fluorescence enhancement (aggregate/native IgG) ([4]; Sodium Chloride, 10 mM): 16.0 fold; Fluorescence enhancement (aggregate/native IgG) ([4]; Sodium Chloride, 100 mM): 16.2 fold; Fluorescence enhancement (aggregate/native IgG) ([4]; Sodium Chloride, 1000 mM): 17.4 fold; Fluorescence enhancement (aggregate/native IgG) ([4]; Sorbitol, 100 mM): 20.0 fold; Fluorescence enhancement (aggregate/native IgG) ([4]; Sorbitol, 300 mM): 19.2 fold; Fluorescence enhancement (aggregate/native IgG) ([4]; Sorbitol, 600 mM): 29.3 fold; Fluorescence enhancement (aggregate/native IgG) ([4]; Trehalose, 100 mM): 18.9 fold; Fluorescence enhancement (aggregate/native IgG) ([4]; Trehalose, 300 mM): 20.1 fold; Fluorescence enhancement (aggregate/native IgG) ([4]; Trehalose, 600 mM): 30.4 fold; Fluorescence enhancement (aggregate/native IgG) ([4]; Tween 20, 0.01%): 8.5 fold; Fluorescence enhancement (aggregate/native IgG) ([4]; Tween 20, 0.2%): 3.4 fold; Fluorescence enhancement (aggregate/native IgG) ([4]; X100, 0.01%): 6.2 fold; Fluorescence enhancement (aggregate/native IgG) ([4]; X100, 0.2%): 3.4 fold; Fluorescence enhancement (aggregate/native IgG) ([4]; X100, 1%): 1.9 fold; Detection of BLG thermal shift (melting) peak [5]: able to detect BLG thermal shift peaks; Fluorescence enhancement with IgG aggregates relative to controls without IgG ([6]; aggregated IgG 0.033 mg/mL): significant fluorescence enhancement; Fluorescence enhancement with unfolded IgG monomer relative to controls without IgG ([6]; monomeric IgG 0.033 mg/mL): insignificant fluorescence enhancement
NC(N)=O [urea]	–	–	–	–	–	–	–	–	–	–	–	–	–	–	–	–	–	–	–	–	IgG unfolded [7]: approximately 60%
